Measured values taken from US20260158046A1, “TREATMENT OF NEURODEGENERATIVE DISORDERS WITH DOXYCYCLINE ALONE OR IN COMBINATION WITH LEVODOPA” (Biohaven Therapeutics Ltd., priority 2023, published 2026).

Legend:
Assay type in all cases: in vivo, human
seborrheic dermatitis = experiment: Case report, Patient A: seborrheic dermatitis under doxycycline
From the text: (§1) Patient A is a person diagnosed with PD approximately one and a half years earlier and treated with levodopa. […] The patient also experienced intermittent irritable bowel disorder symptoms.

[1] = Case report, Patient A: tolerability of doxycycline; details: after two additional months on doxycycline
From the text: as §1

PD tremor = experiment: Case report, Patient A: PD tremor under doxycycline added to levodopa; details: prior to initiation of doxycycline
From the text: as §1

SMILES | time to resolution of seborrheic dermatitis (seborrheic dermatitis; PD patient on levodopa, doxycycline 100 mg tablet once a day, first course) [weeks] | time to recurrence of seborrheic dermatitis after discontinuation (seborrheic dermatitis; doxycycline discontinued after approximately 8 weeks (first de-challenge)) [weeks] | adverse event leading to stop of treatment [1] | interval between required levodopa dose increases (worsening PD, most notably tremor) (PD tremor) [months]
C[C@H]1c2cccc(O)c2C(=O)C2=C(O)[C@]3(O)C(=O)C(C(N)=O)=C(O)[C@@H](N(C)C)[C@@H]3[C@@H](O)[C@@H]21 [doxycycline, Doxycycline] | ≤ 3 | ≤ 2 | nausea | –
N[C@@H](Cc1ccc(O)c(O)c1)C(=O)O [levodopa, Levodopa] | – | – | – | ~3
